Source: US10202361B2, “Pyridazinones as herbicides” (E I DU PONT DE NEMOURS AND COMPANY, priority 2014, dated 2019)

What was measured:
Assay type in all cases: in vivo
[1] = system: bromegrass, downy (downy bromegrass, Bromus tectorum); assay: Test C pre-/postemergence greenhouse herbicide test
In short: (§1)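 Visual ratings, 0 = no effect, 100 = complete control, vs untreated controls at 13–15 d. Pre: seeds in loam/sand. Post: 2–18 cm plants (1–4 leaf), peat/vermiculite mix. Surfactant-containing solvent formulation; greenhouse.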

[2] = system: Russian thistle (Salsola kali); assay: as above; settings: Preemergence
In short: as §1

[3] = system: nightshade (eastern black nightshade, Solanum ptycanthum); assay: as above; settings: Preemergence
In short: as §1

[4] = system: bermudagrass (Cynodon dactylon); assay: as above
In short: as §1

[5] = system: foxtail, green (green foxtail, Setaria viridis); assay: as above
In short: as §1

[6] = system: cocklebur (common cocklebur, Xanthium strumarium); assay: as above
In short: as §1

[7] = system: surinam grass (Brachiaria decumbens); assay: as above
In short: as §1

[8] = system: goosegrass (Eleusine indica); assay: as above
In short: as §1

[9] = system: cupgrass, woolly (woolly cupgrass, Eriochloa villosa); assay: as above
In short: as §1

[10] = system: sunflower (common oilseed sunflower, Helianthus annuus); assay: as above; settings: Preemergence
In short: as §1

[11] = system: barley (winter barley, Hordeum vulgare); assay: Test C postemergence greenhouse herbicide test
[12] = system: canarygrass (Phalaris minor); assay: Test C postemergence greenhouse herbicide test
[13] = system: deadnettle (henbit deadnettle, Lamium amplexicaule); assay: Test C postemergence greenhouse herbicide test
[14] = system: windgrass (Apera spica-venti); assay: Test C postemergence greenhouse herbicide test

Measured: Plant response rating

Cc1cc(=O)n(-c2ccc(F)cc2)nc1Oc1ccnc(C(F)(F)F)c1 [Compound 14, 2-(4-fluorophenyl)-5-methyl-6-[[2-(trifluoromethyl)-4-pyridinyl]oxy]-3 (2H)-pyridazinone]
90: [2]; 62 g ai/ha | [2]; 125 g ai/ha | [2]; 250 g ai/ha
75: [7]; Preemergence, 125 g ai/ha | [7]; Preemergence, 250 g ai/ha
80: [8]; Preemergence, 62 g ai/ha
25: [11]; 250 g ai/ha | [14]; 125 g ai/ha
5: [1]; Postemergence, 31 g ai/ha | [1]; Postemergence, 62 g ai/ha | [1]; Postemergence, 125 g ai/ha | [1]; Preemergence, 31 g ai/ha | [1]; Preemergence, 62 g ai/ha | [1]; Preemergence, 125 g ai/ha | [4]; Postemergence, 31 g ai/ha | [7]; Postemergence, 31 g ai/ha | [8]; Postemergence, 31 g ai/ha | [9]; Postemergence, 31 g ai/ha | [10]; 62 g ai/ha | [10]; 125 g ai/ha | [11]; 31 g ai/ha | [11]; 62 g ai/ha | [12]; 31 g ai/ha | [12]; 62 g ai/ha
0: [6]; Preemergence, 31 g ai/ha
45: [7]; Postemergence, 250 g ai/ha | [8]; Preemergence, 31 g ai/ha
100: [3]; 250 g ai/ha | [8]; Preemergence, 125 g ai/ha | [8]; Preemergence, 250 g ai/ha
95: [5]; Preemergence, 31 g ai/ha | [5]; Preemergence, 62 g ai/ha | [5]; Preemergence, 125 g ai/ha | [5]; Preemergence, 250 g ai/ha | [9]; Preemergence, 62 g ai/ha
40: [5]; Postemergence, 125 g ai/ha | [6]; Postemergence, 62 g ai/ha | [6]; Postemergence, 125 g ai/ha
85: [2]; 31 g ai/ha | [6]; Postemergence, 250 g ai/ha | [13]; 31 g ai/ha | [13]; 62 g ai/ha | [13]; 125 g ai/ha | [13]; 250 g ai/ha
20: [7]; Preemergence, 62 g ai/ha | [9]; Postemergence, 250 g ai/ha | [14]; 31 g ai/ha | [14]; 62 g ai/ha
65: [9]; Preemergence, 31 g ai/ha
98: [3]; 31 g ai/ha | [3]; 62 g ai/ha | [3]; 125 g ai/ha | [4]; Preemergence, 31 g ai/ha | [4]; Preemergence, 62 g ai/ha | [4]; Preemergence, 125 g ai/ha | [4]; Preemergence, 250 g ai/ha | [5]; Postemergence, 250 g ai/ha | [9]; Preemergence, 125 g ai/ha | [9]; Preemergence, 250 g ai/ha
35: [6]; Postemergence, 31 g ai/ha
30: [1]; Postemergence, 250 g ai/ha | [1]; Preemergence, 250 g ai/ha | [7]; Postemergence, 125 g ai/ha | [14]; 250 g ai/ha
10: [4]; Postemergence, 62 g ai/ha | [4]; Postemergence, 125 g ai/ha | [5]; Postemergence, 31 g ai/ha | [5]; Postemergence, 62 g ai/ha | [7]; Postemergence, 62 g ai/ha | [8]; Postemergence, 62 g ai/ha | [10]; 250 g ai/ha | [11]; 125 g ai/ha | [12]; 125 g ai/ha
15: [4]; Postemergence, 250 g ai/ha | [8]; Postemergence, 125 g ai/ha | [8]; Postemergence, 250 g ai/ha | [9]; Postemergence, 62 g ai/ha | [9]; Postemergence, 125 g ai/ha | [12]; 250 g ai/ha
